Measurements: paper PMC10489980, “Design of Potent and Salt-Insensitive Antimicrobial Branched Peptides” (Polymers, 2023)
Where two headings read alike, the source gives them in different places. Positions of bridges follow the written chain, without caps; N, C: chain ends. Residues, ends and D or L forms follow the SMILES beside them. Chains are numbered I, II in the order given. *: point of attachment. Fmoc = O=C(OCC1c2ccccc2-c2ccccc21)*

Experiments:
Format in all cases: cell-based
[1] = system: Micrococcus luteus ATCC 49,732
Excerpt: (§1) Ten organisms obtained from the American Type Culture Collection (ATCC; Rockville, MD) were used for antimicrobial assays. Four Gram-negative bacteria included Escherichia coli ATCC 25922, Pseudomonas aeruginosa ATCC 27853, Klebsiella oxytoca ATCC 49131, and Proteus vulgaris ATCC 49132. The three Gram-positive bacteria were Staphylococcus aureus 29213, Micrococcus luteus ATCC 49,732, and Enterococcus faecalis ATCC 29212. The three fungi were Candida albicans ATCC 37092, Candida kefyr ATCC 37095, and Candida tropicalis ATCC 37097. The clinical isolates were obtained from Singapore General Hospital (SGH). They are Enterococcus faecium, Staphylococcus aureus, Klebsiella pneumoniae, Acinetobacter baumannii, Pseudomonas aeruginosa, and Enterobacter species. The strains were incubated in trypticase soy broth (TSB), which was prepared in double distilled water and autoclaved for sterilization. TSB was purchased from Becton-Dickinson (Cockeysville, MD, USA).
(§2) Antimicrobial Assays. A sensitive and reproducible two-stage radial diffusion antimicrobial assay of Lehrer et al. was employed. A 1–4 × 10^6 colony-forming unit/mL of the test organism was mixed with 10 mL of molten underlay gel solution and poured into Petri dishes to form a uniform layer. The gel solution consisted of 10 mM sodium phosphate buffer, 0.03% TSB, and 0.02% Tween-20, with the addition of 100 mM NaCl in the case of high-salt conditions. Upon gel solidification, gel wells were made by a 3-mm diameter template in an evenly spaced array. A 5 µL aliquot of a serial half-log dilution of test peptides at seven concentrations was added to each well after removal of gel plugs. The dishes were incubated at 37 °C for 3 h to allow peptide diffusion into the underlay gels. Gels were overlaid with 10 mL of 1% agarose in 6% TSB (wt/vol). After additional incubation at 37 °C for 16–24 h, the diameter of the clear zone surrounding the wells (colony-free) was measured under a microscope. Antimicrobial activities were expressed in units (0.1 mm = 1 unit), and the MICs (in µM) were determined from the x-intercepts of the dose-response curves. Experiments were performed in triplicates.

[2] = system: Staphylococcus aureus 29213
Excerpt: as §1, §2

[3] = system: Candida kefyr ATCC 37095
Excerpt: as §1, §2

[4] = system: Enterococcus faecalis ATCC 29212
Excerpt: as §1, §2

[5] = system: Escherichia coli ATCC 25922
Excerpt: as §1, §2

[6] = system: Klebsiella oxytoca ATCC 49131
Excerpt: as §1, §2

[7] = system: Proteus vulgaris ATCC 49132
Excerpt: as §1, §2

[8] = system: Candida tropicalis ATCC 37097
Excerpt: as §1, §2

[9] = system: Candida albicans ATCC 37092
Excerpt: as §1, §2

[10] = system: Pseudomonas aeruginosa ATCC 27853
Excerpt: as §1, §2

## CC(=O)N[C@@H](CCCNC(=O)[C@H](CCCNC(=N)N)NC(=O)[C@H](Cc1ccc(O)cc1)NC(=O)[C@H](CC(C)C)NC(=O)[C@@H](N)CCCNC(=N)N)C(=O)N[C@@H](CCCNC(=O)[C@H](CCCNC(=N)N)NC(=O)[C@H](Cc1ccc(O)cc1)NC(=O)[C@H](CC(C)C)NC(=O)[C@@H](N)CCCNC(=N)N)C(=O)N[C@@H](CCCNC(=O)[C@H](CCCNC(=N)N)NC(=O)[C@H](Cc1ccc(O)cc1)NC(=O)[C@H](CC(C)C)NC(=O)[C@@H](N)CCCNC(=N)N)C(=O)N[C@@H](CCCNC(=O)[C@H](CCCNC(=N)N)NC(=O)[C@H](Cc1ccc(O)cc1)NC(=O)[C@H](CC(C)C)NC(=O)[C@@H](N)CCCNC(=N)N)C(N)=O [O4R]
[1]; ATCC 49,732, radial diffusion assay, high-salt (100 mM NaCl), triplicates
  MIC, M. luteus, H-Salt: 6.9 µM
[1]; ATCC 49,732, radial diffusion assay, low-salt (without NaCl), triplicates
  MIC, M. luteus, L-Salt: 1.8 µM
[2]; strain 29213, radial diffusion assay, high-salt (100 mM NaCl), triplicates
  MIC, S. aureus, H-Salt: 2.0 µM
[2]; strain 29213, radial diffusion assay, low-salt (without NaCl), triplicates
  MIC, S. aureus, L-Salt: 7.3 µM
[3]; ATCC 37095, radial diffusion assay, high-salt (100 mM NaCl), triplicates
  MIC, C. kefyr, H-Salt: 0.8 µM
[3]; ATCC 37095, radial diffusion assay, low-salt (without NaCl), triplicates
  MIC, C. kefyr, L-Salt: 0.7 µM
[4]; ATCC 29212, radial diffusion assay, high-salt (100 mM NaCl), triplicates
  MIC, E. faecalis, H-Salt: > 500 µM
[4]; ATCC 29212, radial diffusion assay, low-salt (without NaCl), triplicates
  MIC, E. faecalis, L-Salt: 6.6 µM
[5]; ATCC 25922, two-stage radial diffusion assay, high-salt (underlay gel 10 mM sodium phosphate, 0.03% TSB, 0.02% Tween-20, with 100 mM NaCl), 37 °C, x-intercept of dose-response curve, triplicates
  MIC, E. coli, H-Salt: 4.1 µM
[5]; ATCC 25922, two-stage radial diffusion assay, low-salt (underlay gel 10 mM sodium phosphate, 0.03% TSB, 0.02% Tween-20, without NaCl), 37 °C, x-intercept of dose-response curve, triplicates
  MIC, E. coli, L-Salt: 0.7 µM
[6]; ATCC 49131, radial diffusion assay, high-salt (100 mM NaCl), triplicates
  MIC, K. oxytoca, H-Salt: 2.4 µM
[6]; ATCC 49131, radial diffusion assay, low-salt (without NaCl), triplicates
  MIC, K. oxytoca, L-Salt: 1.8 µM
[7]; ATCC 49132, radial diffusion assay, high-salt (100 mM NaCl), triplicates
  MIC, P. vulgaris, H-Salt: 2.2 µM
[7]; ATCC 49132, radial diffusion assay, low-salt (without NaCl), triplicates
  MIC, P. vulgaris, L-Salt: 5.6 µM
[8]; ATCC 37097, radial diffusion assay, high-salt (100 mM NaCl), triplicates
  MIC, C. tropicalis, H-Salt: 1.5 µM
[8]; ATCC 37097, radial diffusion assay, low-salt (without NaCl), triplicates
  MIC, C. tropicalis, L-Salt: 1.4 µM
[9]; ATCC 37092, radial diffusion assay, high-salt (100 mM NaCl), triplicates
  MIC, C. albicans, H-Salt: 1.6 µM
[9]; ATCC 37092, radial diffusion assay, low-salt (without NaCl), triplicates
  MIC, C. albicans, L-Salt: 1.4 µM
[10]; ATCC 27853, radial diffusion assay, high-salt (100 mM NaCl), triplicates
  MIC, P. aeruginosa, H-Salt: 4.8 µM
[10]; ATCC 27853, radial diffusion assay, low-salt (without NaCl), triplicates
  MIC, P. aeruginosa, L-Salt: 2.1 µM

## CC(C)C[C@H](NC(=O)[C@@H](N)CCCNC(=N)N)C(=O)N[C@@H](Cc1ccc(O)cc1)C(=O)N[C@@H](CCCNC(=N)N)C(=O)N[C@@H](CCCCNC(=O)[C@H](CCCCNC(=O)[C@H](CCCCNC(=O)OCC1c2ccccc2-c2ccccc21)NC(=O)[C@H](CCCNC(=N)N)NC(=O)[C@H](Cc1ccc(O)cc1)NC(=O)[C@H](CC(C)C)NC(=O)[C@@H](N)CCCNC(=N)N)NC(=O)[C@H](CCCNC(=N)N)NC(=O)[C@H](Cc1ccc(O)cc1)NC(=O)[C@H](CC(C)C)NC(=O)[C@@H](N)CCCNC(=N)N)C(N)=O [iK3R] (I: H-RLYRK-NH2 / II: H-RLYRK(Fmoc) / III: H-RLYRK; amide I:5-III:C, II:C-III:5)
[1]; ATCC 49, 3 h
  MIC, M. luteus, H-Salt: 0.7 µM
  MIC, M. luteus, L-Salt: 0.6 µM
[2]; 29213, 3 h
  MIC, S. aureus, H-Salt: 0.7 µM
  MIC, S. aureus, L-Salt: 0.5 µM
[3]; ATCC 37095, 3 h
  MIC, C. kefyr, H-Salt: 0.7 µM
  MIC, C. kefyr, L-Salt: 0.8 µM
[4]; ATCC 29212, 3 h
  MIC, E. faecalis, H-Salt: 0.8 µM
  MIC, E. faecalis, L-Salt: 0.5 µM
[5]; ATCC 25922, 3 h
  MIC, E. coli, H-Salt: 0.4 µM
  MIC, E. coli, L-Salt: 0.6 µM
[6]; ATCC 49131, 3 h
  MIC, K. oxytoca, H-Salt: 0.7 µM
  MIC, K. oxytoca, L-Salt: 0.7 µM
[7]; ATCC 49132, 3 h
  MIC, P. vulgaris, H-Salt: 0.5 µM
  MIC, P. vulgaris, L-Salt: 0.7 µM
[8]; ATCC 37097, 3 h
  MIC, C. tropicalis, H-Salt: 1.2 µM
  MIC, C. tropicalis, L-Salt: 0.8 µM
[9]; ATCC 37092, 3 h
  MIC, C. albicans, H-Salt: 0.8 µM
  MIC, C. albicans, L-Salt: 0.7 µM
[10]; ATCC 27853, 3 h
  MIC, P. aeruginosa, H-Salt: 0.8 µM
  MIC, P. aeruginosa, L-Salt: 0.7 µM
